Laboratory results reported in patent US10011568B2, “Cyclohexyl pyridine derivative” (priority 2014, dated 2018).

Assays:
[1] = Measurement of drug concentrations in the brain after foot-tapping; type: in vivo; conditions: male gerbil, 0.1 mg/kg iv, after foot-tapping was finished
Experimental: (§1) A male gerbil (Japan SLC) was anesthetized with isoflurane, and 0.1 mg/kg of a test compound was administered from the jugular vein. After four hours. GR73632 (5 pmol/5 μl saline), which is an NK1 receptor agonist, was administered into the cerebral ventricle at the part 1 mm lateral to and 4.5 mm below the bregma in the head, under anesthesia with isoflurane. After the administration, the gerbil was moved to an observation cage, and the foot-tapping period during 30 minutes after the recovery of the righting reflex was measured. The foot-tapping inhibition rate (%) of each test compound was calculated by the following equation. Foot-tapping inhibition rate (%)−{1−(Fool-tapping period when test compound was administered)/(Foot-tapping period when solvent was administered)}×100 (2) Measurement of Drug Concentrations
After foot-tapping was finished, laparotomy was performed immediately under anesthesia with ether, and a blood sample was taken from the abdominal vena cava. At the same lime, the brain was extracted. Through a quantitative analysis using liquid chromatography-mass spectrometry (LC/MS), the concentrations of the test compound in the plasma and the brain were measured.
(§2) In the table, Ex. No. means the Example number. Inhibition (%) is the loot-tapping inhibition rate, and Cone. (nM) is the drug concentration in the brain.

NK1 receptor = NK1 receptor (Meriones unguiculatus (Mongolian jird) (Gerbillus unguiculatus), UniProt Q5DUB1); assay: Effect on foot-tapping induced by NK1 receptor agonist GR73632; type: in vivo; conditions: male gerbil, 0.1 mg/kg iv, GR73632 after four hours
Experimental: (1) Effect on Foot-Tapping
The test compound solution was prepared by dissolving the test compound in a vehicle (a mixture of 50% N,N-dimethylacetamide (Wako Pure Chemical Industries), 30% propylene glycol (Wako Pure Chemical Industries). 4% 2-hydroxypropyl-β-cyclodextrin (Wako Pure Chemical Industries) and 16% distilled water).
as §1, §2

human CYP3A4 = human CYP3A4 (Homo sapiens (Human), UniProt P08684); assay: Inhibitory effect on CYP3A4; type: in vitro ADME; conditions: 30-minute pre-incubation, Luciferin-IPA substrate; read-out: IC50 (μM), CYP3A4 inhibition
Experimental: Inhibitory Effect on CYP3A4
Enzyme reaction was performed by incubating in a potassium phosphate buffer solution (pH 7.4) containing 1 nM to 20 μM test compound, 3.2 mM magnesium chloride, 0.2 pmol human CYP3A4 (BD Biosciences), 0.5 mM reduced nicotinamide adenine dinucleotide phosphate (NADPH) and 3 μM Luciferin-IPA (Promega) at 37° C. for 10 minutes. The volume of the reaction solution was 50 μL/well. The 30-minute pre-incubation group was incubated at 37° C. for 30 minutes before adding tire substrate, the Luciferin-IPA solution (12.5 μL/well). At the end of the enzyme reaction, 50 μL/well of a Luciferin detection reagent (Promega) was added to the wells, and the plate was left at room temperature for 20 minutes. Then, the emission intensities were measured with Infinite M1000 (TECAN). The enzyme activities (%) relative to the value of the group to which the test compound was not added were calculated.

hERG channel = hERG channel (Homo sapiens (Human), UniProt Q12809); assay: Evaluation of hERG current (whole-cell patch clamp); type: cell-based; conditions: 10 μM, application for 10 minutes, HEK293 cells, n = 3, average ± standard error
Experimental: Evaluation of hERG Current
A dimethyl sulfoxide (DMSO) solution of the test compound with a concentration 1000 times higher than the evaluation concentration (10 μM) was prepared, and a solution with a final application concentration was prepared by diluting the solution. The hERG current was measured by a whole-cell method using a patch clamp system, where a cover glass on which hERG channel-expressing human embryonic kidney (HEK) 293 cells were seeded was placed on a perfusion bath and a perfusion solution was caused to flow. The change in the hERG channel-derived current caused by a pulse protocol (holding potential of −80 mV, depolarization pulse of +20 mV for 1.9 seconds, repolarization pulse of −50 mV for 2 seconds, stimulated at intervals of 15 seconds) of data acquisition/analysis software, pCLAMP9 (Axon instruments. Inc.) was measured. The measurement conditions were a flow rate of about 1.5 mL/min and a temperature of about 33° C. Two wave forms immediately before applying the test compound and two wave forms immediately after the application for 10 minutes were analyzed, and the statistical analysis was performed. The value before the application of the test compound was regarded as 100%, and the change rate based on the value was determined.
In the table, Ex. No. means the Example number, and the change rate is the average±the standard error.

[2] = system: cisplatin-induced retching and vomiting; assay: Effect on cisplatin-induced acute and delayed emetic response; type: in vivo; conditions: ferret, 0.01 or 0.1 mg/kg iv
Experimental: The vertical axes show the number of retching and vomiting (Retches+Vomits) (the mean+standard error of 3 examples of control group, the mean+standard error of 3 examples of the group intravenously administered with 0.01 mg/kg, and the mean+standard error of 3 examples of the group intravenously administered with 0.1 mg/kg).
Effect on Cisplatin-Induced Acute and Delayed Emetic Response
The test compound solution was prepared by dissolving the test compound in a vehicle (a mixture of 50% N,N-dimetlylacetamide (Wako Pure Chemical Industries). 30% propylene glycol (Wako Pure Chemical Industries), 4% 2-hydroxypropy-β-cyclodextrin (Wako Pure Chemical Industries) and 16% distilled water). The vehicle only was administered to the control group.
Under anesthesia with isoflurane, 0.01 mg/kg or 0.1 mg/kg of the test compound was intravenously administered to a male ferret (Marshall BioResources Japan) from the jugular vein. Cisplatin in saline, which was heated to 40-50° C., was intraperitoneally administered at 5 mg/kg one hour after the drug administration.

Sequence of NK1 receptor (Q5DUB1 whole entry): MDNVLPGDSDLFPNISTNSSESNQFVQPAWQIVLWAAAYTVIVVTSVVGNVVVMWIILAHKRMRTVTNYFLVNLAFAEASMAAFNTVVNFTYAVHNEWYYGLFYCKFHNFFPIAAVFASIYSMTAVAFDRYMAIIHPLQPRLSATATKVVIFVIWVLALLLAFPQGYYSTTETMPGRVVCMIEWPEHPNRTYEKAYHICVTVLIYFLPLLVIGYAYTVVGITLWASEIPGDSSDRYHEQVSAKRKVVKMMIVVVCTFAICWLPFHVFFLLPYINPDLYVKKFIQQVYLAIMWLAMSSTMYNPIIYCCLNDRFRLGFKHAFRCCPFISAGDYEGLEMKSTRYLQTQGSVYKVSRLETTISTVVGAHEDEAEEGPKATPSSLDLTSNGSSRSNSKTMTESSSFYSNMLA
Sequence of human CYP3A4 (P08684 whole entry): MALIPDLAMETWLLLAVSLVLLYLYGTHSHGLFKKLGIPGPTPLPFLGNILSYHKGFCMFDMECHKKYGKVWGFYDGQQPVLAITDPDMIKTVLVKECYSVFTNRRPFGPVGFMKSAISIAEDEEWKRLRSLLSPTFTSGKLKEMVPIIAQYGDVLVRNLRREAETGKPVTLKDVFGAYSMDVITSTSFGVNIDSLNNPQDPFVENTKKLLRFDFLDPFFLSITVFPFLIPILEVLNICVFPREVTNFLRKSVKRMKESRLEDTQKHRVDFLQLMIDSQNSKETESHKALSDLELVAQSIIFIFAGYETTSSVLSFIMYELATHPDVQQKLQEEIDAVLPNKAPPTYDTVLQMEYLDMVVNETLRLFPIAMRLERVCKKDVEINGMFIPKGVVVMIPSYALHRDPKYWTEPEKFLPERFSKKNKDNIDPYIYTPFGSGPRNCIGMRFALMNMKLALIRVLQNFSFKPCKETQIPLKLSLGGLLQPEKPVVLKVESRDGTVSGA
Sequence of hERG channel (Q12809 whole entry): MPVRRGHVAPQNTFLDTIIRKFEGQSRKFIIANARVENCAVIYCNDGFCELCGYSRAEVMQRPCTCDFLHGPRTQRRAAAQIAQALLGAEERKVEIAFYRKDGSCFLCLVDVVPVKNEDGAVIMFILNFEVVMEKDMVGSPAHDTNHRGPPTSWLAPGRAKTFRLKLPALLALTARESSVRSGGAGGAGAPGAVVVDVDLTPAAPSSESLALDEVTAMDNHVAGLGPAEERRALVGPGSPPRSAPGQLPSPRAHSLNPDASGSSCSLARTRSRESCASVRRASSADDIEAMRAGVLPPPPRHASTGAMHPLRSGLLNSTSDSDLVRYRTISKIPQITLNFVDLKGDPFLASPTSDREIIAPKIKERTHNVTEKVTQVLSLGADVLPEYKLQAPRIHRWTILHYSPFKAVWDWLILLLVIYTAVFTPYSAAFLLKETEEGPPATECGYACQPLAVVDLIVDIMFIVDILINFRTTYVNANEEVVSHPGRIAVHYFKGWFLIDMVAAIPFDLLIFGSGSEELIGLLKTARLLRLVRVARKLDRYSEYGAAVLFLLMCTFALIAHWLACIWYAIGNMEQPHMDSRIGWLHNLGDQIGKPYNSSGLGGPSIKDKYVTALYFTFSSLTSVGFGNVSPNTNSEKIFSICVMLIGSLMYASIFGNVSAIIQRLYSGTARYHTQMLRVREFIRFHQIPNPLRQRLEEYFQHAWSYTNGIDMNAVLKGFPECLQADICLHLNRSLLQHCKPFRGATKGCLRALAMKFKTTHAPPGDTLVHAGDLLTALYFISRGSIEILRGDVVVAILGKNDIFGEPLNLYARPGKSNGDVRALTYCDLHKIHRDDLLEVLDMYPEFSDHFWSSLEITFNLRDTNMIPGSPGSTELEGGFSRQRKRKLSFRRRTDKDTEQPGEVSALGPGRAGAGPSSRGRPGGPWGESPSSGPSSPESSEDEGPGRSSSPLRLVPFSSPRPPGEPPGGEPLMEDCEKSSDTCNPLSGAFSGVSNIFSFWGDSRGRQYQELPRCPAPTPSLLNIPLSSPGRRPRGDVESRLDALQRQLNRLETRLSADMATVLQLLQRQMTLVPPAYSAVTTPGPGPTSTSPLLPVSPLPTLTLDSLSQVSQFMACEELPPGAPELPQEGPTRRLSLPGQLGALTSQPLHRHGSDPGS

Cc1cc(F)ccc1-c1cc(C2CCC(C(=O)O)CC2)ncc1N(C)C(=O)C(C)(C)c1cc(C(F)(F)F)cc(C(F)(F)F)c1 (stereo not shown) [Example 1, 4-[5-{[2-(3,5-Bistrifluoromethylphenyl)-2-methylpropionyl]methylamino}-4-(4-fluoro-2-methylphenyl)pyridin-2-yl]cyclohexanecarboxylic Acid]
Conc. (nM), drug concentration in the brain [1]: 24 nM
Inhibition (%), foot-tapping inhibition rate (NK1 receptor): 98%
IC50 (human CYP3A4): 13 µM

Cc1cc(F)ccc1-c1cc(C2CCCC(CC(=O)O)C2)ncc1N(C)C(=O)C(C)(C)c1cc(C(F)(F)F)cc(C(F)(F)F)c1 (stereo not shown) [Example 3, {3-[5-{[2-(3,5-Bistrifluoromethylphenyl)-2-methylpropionyl]methylamino}-4-(4-fluoro-2-methylphenyl)pyridin-2-yl]cyclohexyl}acetic Acid]
Conc. (nM), drug concentration in the brain [1]: 48 nM
Inhibition (%), foot-tapping inhibition rate (NK1 receptor): 100%
IC50 (human CYP3A4): 9.4 µM

Cc1cc(F)ccc1-c1cc(C2(C)CCCC(CC(=O)O)C2)ncc1N(C)C(=O)C(C)(C)c1cc(C(F)(F)F)cc(C(F)(F)F)c1 (stereo not shown) [Example 4, {3-[5-{[2-(3,5-Bistrifluoromethylphenyl)-2-methylpropionyl]methylamino}-4-(4-fluoro-2-methylphenyl)pyridin-2-yl]-3-methylcyclohexyl}acetic Acid]
Conc. (nM), drug concentration in the brain [1]: 35 nM
Inhibition (%), foot-tapping inhibition rate (NK1 receptor): 77%
IC50 (human CYP3A4): 7.1 µM

Cc1cc(F)ccc1-c1cc(C2CCC3(CC2)CC3C(=O)O)ncc1N(C)C(=O)C(C)(C)c1cc(C(F)(F)F)cc(C(F)(F)F)c1 (stereo not shown) [Example 7, 6-[5-{[2-(3,5-Bistrifluoromethylphenyl)-2-methylpropionyl]methylamino}-4-(4-fluoro-2-methylphenyl)pyridin-2-yl]spiro[2.5]octane-1-carboxylic Acid]
Conc. (nM), drug concentration in the brain [1]: 24 nM
Inhibition (%), foot-tapping inhibition rate (NK1 receptor): 90%
IC50 (human CYP3A4): 11 µM

Cc1cc(F)ccc1-c1cc(C2CCC(CC(=O)O)CC2)nc(C#N)c1N(C)C(=O)C(C)(C)c1cc(C(F)(F)F)cc(C(F)(F)F)c1 (stereo not shown) [Example 8, {4-[5-{[2-(3,5-Bistrifluoromethylphenyl)-2-methylpropionyl]methylamino}-6-cyano-4-(4-fluoro-2-methylphenyl)pyridin-2-yl]cyclohexyl}acetic Acid]
Conc. (nM), drug concentration in the brain [1]: 59 nM
Inhibition (%), foot-tapping inhibition rate (NK1 receptor): 100%
IC50 (human CYP3A4): 6.1 µM

Cc1ccccc1-c1cc(C2CCC(CC(=O)O)CC2)ncc1N(C)C(=O)C(C)(C)c1cc(C(F)(F)F)cc(C(F)(F)F)c1 (stereo not shown) [Example 9, {4-[5-{[2-(3,5-Bistrifluoromethylphenyl)-2-methylpropionyl]methylamino}-4-ortho-tolylpyridine-yl]-cyclohexyl}acetic Acid]
Conc. (nM), drug concentration in the brain [1]: 47 nM
Inhibition (%), foot-tapping inhibition rate (NK1 receptor): 75%
IC50 (human CYP3A4): 6.9 µM

Cc1cc(F)ccc1-c1cc(C2CCC(C(C)C(=O)O)CC2)ncc1N(C)C(=O)C(C)(C)c1cc(C(F)(F)F)cc(C(F)(F)F)c1 (stereo not shown) [Example 10, 2-{4-[5-{[2-(3,5-Bistrifluoromethylphenyl)-2-methylpropionyl]methylamino}-4-(4-fluoro-2-methylphenyl)pyridin-2-yl]cyclohexyl}propionic Acid]
Conc. (nM), drug concentration in the brain [1]: 42 nM
Inhibition (%), foot-tapping inhibition rate (NK1 receptor): 97%
IC50 (human CYP3A4): 11 µM

Cc1cc(F)ccc1-c1cc([C@H]2CC[C@H](C(C)(C)C(=O)O)CC2)ncc1N(C)C(=O)C(C)(C)c1cc(C(F)(F)F)cc(C(F)(F)F)c1 [Example 11, trans-2-{4-[5-{[2-(3,5-Bistrifluoromethylphenyl)-2-methylpropionyl]methylamino}-4-(4-fluoro-2-methylphenyl)pyridin-2-yl]cyclohexyl}-2-methylpropionic Acid]
Conc. (nM), drug concentration in the brain [1]: 72 nM
Inhibition (%), foot-tapping inhibition rate (NK1 receptor): 95%
IC50 (human CYP3A4): 2.7 µM

Cc1cc(F)ccc1-c1cc([C@H]2CC[C@H](CC(=O)O)CC2)ncc1N(C)C(=O)C(C)(C)c1cc(C(F)(F)F)cc(C(F)(F)F)c1 [Example 13, trans-{4-[5-{[2-(3,5-Bistrifluoromethylphenyl)-2-methylpropionyl]methylamino}-4-(4-fluoro-2-methylphenyl)pyridin-2-yl]cyclohexyl}acetic acid]
hERG current change rate % (value before application = 100%) (hERG channel): 81.1 ± 5.6%
number of retching and vomiting, delayed phase ([2]; 24 hours to 72 hours after cisplatin 5 mg/kg ip): the inhibition of the number of retching and vomiting was observed
number of retching and vomiting, acute phase ([2]; up to 24 hours after cisplatin 5 mg/kg ip): the inhibition of the number of retching and vomiting was observed
Conc. (nM), drug concentration in the brain [1]: 51 nM
Inhibition (%), foot-tapping inhibition rate (NK1 receptor): 100%
IC50 (human CYP3A4): 8.2 µM

Cc1cc(F)ccc1-c1cc([C@H]2CC[C@@H](CC(=O)O)CC2)ncc1N(C)C(=O)C(C)(C)c1cc(C(F)(F)F)cc(C(F)(F)F)c1 [Example 14, cis-{4-[5-{[2-(3,5-bistrifluoromethylphenyl)-2-methylpropionyl]methylamino}-4-(4-fluoro-2-methylphenyl)pyridin-2-yl]cyclohexyl}acetic acid]
hERG current change rate % (value before application = 100%) (hERG channel): 80.3 ± 3.9%
Conc. (nM), drug concentration in the brain [1]: 40 nM
Inhibition (%), foot-tapping inhibition rate (NK1 receptor): 99%
IC50 (human CYP3A4): 7.5 µM

Cc1ccccc1-c1cc(C2CCC(CC(=O)O)CC2)nc(C#N)c1N(C)C(=O)C(C)(C)c1cc(C(F)(F)F)cc(C(F)(F)F)c1 (stereo not shown) [Example 16, [4-(5-{[2-(3,5-Bistrifluoromethylphenyl)-2-methylpropionyl]methylamino}-6-cyano-4-ortho-tolylpyridin-2-yl)cyclohexyl]acetic Acid]
Conc. (nM), drug concentration in the brain [1]: 64 nM
Inhibition (%), foot-tapping inhibition rate (NK1 receptor): 93%
IC50 (human CYP3A4): 3.1 µM

Cc1cc(F)ccc1-c1cc([C@H]2CC[C@H](CC(=O)O)CC2)nc(C#N)c1N(C)C(=O)C(C)(C)c1cc(C(F)(F)F)cc(C(F)(F)F)c1 [Example 20, trans-{4-[5-{[2-(3,5-Bistrifluoromethylphenyl)-2-methylpropionyl]methylamino}-6-cyano--4-(4-fluoro-2-methylphenyl)-pyridin-2-yl]cyclohexyl}acetic acid]
Conc. (nM), drug concentration in the brain [1]: 92 nM
Inhibition (%), foot-tapping inhibition rate (NK1 receptor): 100%
IC50 (human CYP3A4): 5.5 µM

Cc1cc(F)ccc1-c1cc([C@H]2CC[C@@H](CC(=O)O)CC2)nc(C#N)c1N(C)C(=O)C(C)(C)c1cc(C(F)(F)F)cc(C(F)(F)F)c1 [Example 21, cis-{4-[5-{[2-(3,5-bistrifluoromethylphenyl)-2-methylpropionyl]methylamino}-6-cyano-4-(4-fluoro-2-methylphenyl)pyridin-2-yl]cyclohexyl}acetic acid]
Conc. (nM), drug concentration in the brain [1]: 92 nM
Inhibition (%), foot-tapping inhibition rate (NK1 receptor): 100%
IC50 (human CYP3A4): 4.2 µM
